Data: patent US8986961B2, “Fermentative production of acetone from renewable resources by means of novel metabolic pathway” (Evonik Degussa GmbH, priority 2007, dated 2015)
“And” between values parts separate entries of the source, which are not always exact repeats. Identical values can stand only once.

Columns and labels:
[1] = tested on: acyl-CoA synthetase/acyl-CoA thiokinase (with AMP formation; EC 6.2.1.2); settings: purified enzyme, Shimizu et al. 1981; read-out: Km for substrate; cited from earlier work
[2] = biological target: T1, Acetoacetyl-CoA synthetase (AACS) (Rhizobium meliloti, UniProt Q9Z3R3); settings: purified AACS, DTNB assay
T1 sequence (Q9Z3R3 1-650): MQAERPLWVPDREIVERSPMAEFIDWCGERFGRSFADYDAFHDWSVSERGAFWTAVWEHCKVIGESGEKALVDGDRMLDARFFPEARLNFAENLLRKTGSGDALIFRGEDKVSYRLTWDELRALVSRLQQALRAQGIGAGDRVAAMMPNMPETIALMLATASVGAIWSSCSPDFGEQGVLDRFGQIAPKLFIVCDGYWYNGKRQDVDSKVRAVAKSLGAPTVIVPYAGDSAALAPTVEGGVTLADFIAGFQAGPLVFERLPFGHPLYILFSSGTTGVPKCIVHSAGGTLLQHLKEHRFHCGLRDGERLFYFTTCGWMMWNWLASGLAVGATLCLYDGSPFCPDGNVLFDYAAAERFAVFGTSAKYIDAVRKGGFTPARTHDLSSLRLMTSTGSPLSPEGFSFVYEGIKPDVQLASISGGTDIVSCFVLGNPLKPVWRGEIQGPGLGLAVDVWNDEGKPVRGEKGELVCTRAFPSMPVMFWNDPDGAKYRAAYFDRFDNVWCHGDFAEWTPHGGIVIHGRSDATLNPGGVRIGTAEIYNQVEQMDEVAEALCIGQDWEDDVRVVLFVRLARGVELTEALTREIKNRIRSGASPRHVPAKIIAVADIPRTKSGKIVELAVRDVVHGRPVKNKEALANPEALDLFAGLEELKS
Description: (§1) The resulting fractions were combined and employed for the activity determination. […] In the DTNB assay, the terminal sulfhydryl group of CoA, which has been liberated by the enzymatic conversion to acetoacetate or acetate, reacts with DTNB to give a coloured product which can be determined by photometry at 412 nm.

E. coli HB101 = experiment: Acetone formation in E. coli HB101, 5 ml cultures; format: cell-based, Escherichia coli; settings: HB101, LBAmp, 5 ml culture, 37° C., glucose 20 g/l, cell-free supernatant, gas chromatography
Method: All the resulting plasmid variants (see Table 1) were investigated for acetone formation in the E. coli cloning strain HB101. The analyses took place on the 5 ml scale in LB medium with ampicillin (100 μg/ml) after inoculation from appropriate precultures and after incubation at 37° C. and 200 rpm. The optical density (600 nm) was followed by photometry and, at a value of about 0.5-0.6, expression of the cloned genes was induced by adding 1 mM IPTG (isopropyl β-D-thiogalactopyrano-side) and, after 3-4 h, glucose (20 g/l) was added. No induction took place with the variants under the control of the thiolase promoter because it was assumed that constitutive expression takes place. Samples were taken at particular times over a period of about 48 h, and the concentration of acetone and acetate in the cell-free medium supernatant was determined by gas chromatography. Additional glucose doses optionally took place in varying amounts (in the range 10-40 g/l) either 4 h after induction or else simultaneously with the induction.

[3] = biological target: YbgC acyl-CoA thioesterase (EC 3.1.2.18) (Haemophilus influenzae, UniProt P44679); settings: Zhuang et al. 2002; read-out: Km of YbgC for substrate; cited from earlier work
Chain of YbgC acyl-CoA thioesterase (EC 3.1.2.18) (P44679 whole entry): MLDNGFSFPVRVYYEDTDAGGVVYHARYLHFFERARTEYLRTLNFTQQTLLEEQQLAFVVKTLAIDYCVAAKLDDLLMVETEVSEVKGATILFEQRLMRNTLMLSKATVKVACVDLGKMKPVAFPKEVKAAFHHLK

[4] = tested on: CC(=O)SCCNC(=O)CCNC(=O)[C@H](O)C(C)(C)COP(=O)(O)OP(=O)(O)OC[C@H]1O[C@@H](n2cnc3c(N)ncnc32)[C@H](O)[C@@H]1OP(=O)(O)O; experiment: purified protein, by the assay type; settings: other: YbgC elution fractions (IMPACT system), DTNB assay; measurements varied
[5] = tested on: CC(=O)CC(=O)SCCNC(=O)CCNC(=O)[C@H](O)C(C)(C)COP(=O)(O)OP(=O)(O)OC[C@H]1O[C@@H](n2cnc3c(N)ncnc32)[C@H](O)[C@@H]1OP(=O)(O)O; experiment: purified protein, by the assay type; settings: other: YbgC elution fractions (IMPACT system), DTNB assay; measurements varied
Method: as §1
Expression took place in E. coli BL21 (DE3) in LBAmp medium until induction at an OD600nm of ˜0.5 with 0.5 mM IPTG at 37° C., and thereafter the culture was incubated at 20° C. and 150 rpm for a further 6 h. The heterologously expressed fusion protein (approx. 70 kDa) binds to chitin. Addition of DTT causes a conformational change and induces cutting out of the target protein (approx. 15 kDa), which can subsequently be eluted.

[6] = biological target: T2, Thioesterase II (TEIIsrf) (Bacillus subtilis, UniProt Q08788); settings: read-out: Km of TEIIsrf for substrate; purified His-tagged TEIIsrf, DTNB assay 412 nm, Lineweaver-Burk
T2 sequence (Q08788 with tags, fused parts or gaps): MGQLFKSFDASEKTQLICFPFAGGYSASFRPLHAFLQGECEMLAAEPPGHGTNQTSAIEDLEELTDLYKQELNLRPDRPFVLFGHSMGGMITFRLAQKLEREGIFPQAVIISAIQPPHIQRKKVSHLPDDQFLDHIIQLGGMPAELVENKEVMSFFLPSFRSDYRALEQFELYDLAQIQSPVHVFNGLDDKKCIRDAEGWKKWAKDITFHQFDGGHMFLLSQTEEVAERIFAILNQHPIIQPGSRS
Method: (§2) The intended activity measurement using the DTNB assay [5,5′-dithiobis(2-nitrobenzoic acid)], with which free SH groups are determined, required purification of the protein. This took place with the assistance of FPLC via the fused His tag of TEIIsrf by means of metal chelate affinity chromatography on Ni^2+-NTA agarose and increasing imidazole gradient.
(§3) For this purpose, initially the cells were harvested (5000×g, 15 min, 4° C.), suspended in 3 ml/g fresh weight of cell disruption buffer (50 mM HEPES, 300 mM NaCl, pH 7.8) and stored if necessary at −20° C. The cells were disrupted by ultrasound treatment (Sonicator Bandelin Sonopuls, Bandelin Berlin), and the crude extract was obtained by centrifugation (30 000×g, 30 min, 4° C.). Purification took place on an FPLC system (Pharmacia Biotech GmbH). 3.5 ml of crude extract were loaded onto the Ni^2+-NTA agarose column (Qiagen Superflow, bed volume 5 ml) which had been prepared and equilibrated (50 mM HEPES, 300 mM NaCl, 30 mM imidazole, pH 7) in accordance with the manufacturer's instructions. […]
as §1

[7] = substrate: CC(=O)CC(=O)SCCNC(=O)CCNC(=O)[C@H](O)C(C)(C)COP(=O)(O)OP(=O)(O)OC[C@H]1O[C@@H](n2cnc3c(N)ncnc32)[C@H](O)[C@@H]1OP(=O)(O)O; experiment: purified protein, by the assay type; settings: other: purified His-tagged TEIIsrf, DTNB assay 412 nm, Lineweaver-Burk
Method: as §2, §3, §1

[8] = substrate: CC(=O)SCCNC(=O)CCNC(=O)[C@H](O)C(C)(C)COP(=O)(O)OP(=O)(O)OC[C@H]1O[C@@H](n2cnc3c(N)ncnc32)[C@H](O)[C@@H]1OP(=O)(O)O; experiment: purified protein, by the assay type; settings: other: purified His-tagged AACS (peak 2), DTNB assay

For `CCC(=O)C(=O)O` [2-ketobutyrate], which Km [1] is on record?
Its Km is 25 µM.

Which “specific activity of the enzyme with substrate” value [2] does the source give for `CC(=O)CC(=O)SCCNC(=O)CCNC(=O)[C@H](O)C(C)(C)COP(=O)(O)OP(=O)(O)OC[C@H]1O[C@@H](n2cnc3c(N)ncnc32)[C@H](O)[C@@H]1OP(=O)(O)O` [acetoacetyl-CoA] here?
The value was 0.0038 µmol/min/mg.

With “pUC18att: plasmid SEQ ID No. 10; teIIsrf, adc, thlA in pUC18 under thl promoter” as the molecule, how does the Max. acetone concentration (E. coli HB101) read?
The Max. acetone concentration was 35 mM and 2.0 g/l.

Which Km [1] does the source give for β-hydroxybutyrate-CoA here?
Its Km is 25 µM.

What about the Km [3] of the same molecule?
Its Km is 20000 µM.

Which results are given for `CCCC(=O)SCCNC(=O)CCNC(=O)[C@H](O)C(C)(C)COP(=O)(O)OP(=O)(O)OC[C@H]1O[C@@H](n2cnc3c(N)ncnc32)[C@H](O)[C@@H]1OP(=O)(O)O` [butyryl-CoA]?
Km [1]: 10 µM; Km [3]: 24000 µM

With “Acyl-CoA thioesterase YbgC (Haemophilus influenzae Rd KW20)” as the molecule, how does the Km [4] read?
The Km was 530 µM.

And the Km [5]?
The Km was 140 µM.

For `CC(=O)SCCNC(=O)CCNC(=O)[C@H](O)C(C)(C)COP(=O)(O)OP(=O)(O)OC[C@H]1O[C@@H](n2cnc3c(N)ncnc32)[C@H](O)[C@@H]1OP(=O)(O)O` [acetyl-CoA], which Km [6] is on record?
The Km was 200 µM.

B1: Thioesterase II (TEIIsrf) (Bacillus subtilis subsp. subtilis str. 168) (protein)
chain: T2 sequence (Q08788 with tags, fused parts or gaps)
With B1 as the molecule, how does the Km [7] read?
Its Km is 770 µM.

B2: Acetoacetyl-CoA synthetase (AACS) (Sinorhizobium meliloti 1021) (protein)
chain: T1 sequence (Q9Z3R3 1-650)
For B2, which Km [8] is on record?
Its Km is 700 µM.
